Test results as given in PMC9551036, “A selective and orally bioavailable VHL-recruiting PROTAC achieves SMARCA2 degradation in vivo” (Nature Communications, 2022).
Where “and” joins values, the source holds several entries; their conditions need not be identical. Identical values can stand only once. Like-named read-outs stand apart in the source and are kept apart here.

Legend:
SMARCA2 = SMARCA2 (Homo sapiens, UniProt P51531); experiment: Ex vivo human whole blood assay, SMARCA2; format: cell-based; set-up: endogenous in cells; details: for HillSlope (best-fit value) / DC50: four-parameter fit; for Bottom (best-fit value) / Span (best-fit value) / Top (best-fit value): four-parameter fit of % protein remaining; for DC50: read-out: EC50 (best-fit value); for LogEC50 (best-fit value): log10 of concentration (mol/l)
Method: The assay was performed on human whole blood from three healthy donors, purchased from the Austrian Red Cross who always obtain samples under informed consent. […] Samples were pivoted at room temperature for 18 h in the dark. Subsequently, peripheral blood mononucleated cells (PBMCs) were isolated from individual aliquots using SepMate Tubes (StemCell) and Lymphoprep (StemCell) medium according to the manufacturer’s instructions and protein lysates were prepared using MSD Lysis buffer (Mesocale Discovery) supplemented with 1:100 Halt Phosphatase-Protease Inhibitor Cocktail (Thermo Fisher), 0.5 µl/ml benzonase (Novagen) and 10 mM DTT. SMARCA2 and SMARCA4 protein levels were determined using capillary electrophoresis (Bio-Techne) according to manufacturer’s instructions. Incubation with primary antibodies for SMARCA2 (Cell Signalling #11966 clone D9E8B RRID:AB_2797783 1:25), SMARCA4 (Abcam #ab110641 clone EPNCIR111A RRID:AB_10861578 1:25) and GAPDH (Abcam, #ab9485 RRID:AB_307275 1:1000) were performed for 30 min.

SMARCA4 = SMARCA4 (Homo sapiens, UniProt P51532); experiment: Ex vivo human whole blood assay, SMARCA4; format: cell-based; set-up: endogenous in cells; details: for % protein remaining, SMARCA4: Donor 1
Method: The assay was performed on human whole blood from three healthy donors, purchased from the Austrian Red Cross who always obtain samples under informed consent. […] Subsequently, peripheral blood mononucleated cells (PBMCs) were isolated from individual aliquots using SepMate Tubes (StemCell) and Lymphoprep (StemCell) medium according to the manufacturer’s instructions and protein lysates were prepared using MSD Lysis buffer (Mesocale Discovery) supplemented with 1:100 Halt Phosphatase-Protease Inhibitor Cocktail (Thermo Fisher), 0.5 µl/ml benzonase (Novagen) and 10 mM DTT. SMARCA2 and SMARCA4 protein levels were determined using capillary electrophoresis (Bio-Techne) according to manufacturer’s instructions. Incubation with primary antibodies for SMARCA2 (Cell Signalling #11966 clone D9E8B RRID:AB_2797783 1:25), SMARCA4 (Abcam #ab110641 clone EPNCIR111A RRID:AB_10861578 1:25) and GAPDH (Abcam, #ab9485 RRID:AB_307275 1:1000) were performed for 30 min.

[1] = Donor 1 SMARCA4, four-parameter fit of % protein remaining

SMARCA4, sequence (P51532 whole entry): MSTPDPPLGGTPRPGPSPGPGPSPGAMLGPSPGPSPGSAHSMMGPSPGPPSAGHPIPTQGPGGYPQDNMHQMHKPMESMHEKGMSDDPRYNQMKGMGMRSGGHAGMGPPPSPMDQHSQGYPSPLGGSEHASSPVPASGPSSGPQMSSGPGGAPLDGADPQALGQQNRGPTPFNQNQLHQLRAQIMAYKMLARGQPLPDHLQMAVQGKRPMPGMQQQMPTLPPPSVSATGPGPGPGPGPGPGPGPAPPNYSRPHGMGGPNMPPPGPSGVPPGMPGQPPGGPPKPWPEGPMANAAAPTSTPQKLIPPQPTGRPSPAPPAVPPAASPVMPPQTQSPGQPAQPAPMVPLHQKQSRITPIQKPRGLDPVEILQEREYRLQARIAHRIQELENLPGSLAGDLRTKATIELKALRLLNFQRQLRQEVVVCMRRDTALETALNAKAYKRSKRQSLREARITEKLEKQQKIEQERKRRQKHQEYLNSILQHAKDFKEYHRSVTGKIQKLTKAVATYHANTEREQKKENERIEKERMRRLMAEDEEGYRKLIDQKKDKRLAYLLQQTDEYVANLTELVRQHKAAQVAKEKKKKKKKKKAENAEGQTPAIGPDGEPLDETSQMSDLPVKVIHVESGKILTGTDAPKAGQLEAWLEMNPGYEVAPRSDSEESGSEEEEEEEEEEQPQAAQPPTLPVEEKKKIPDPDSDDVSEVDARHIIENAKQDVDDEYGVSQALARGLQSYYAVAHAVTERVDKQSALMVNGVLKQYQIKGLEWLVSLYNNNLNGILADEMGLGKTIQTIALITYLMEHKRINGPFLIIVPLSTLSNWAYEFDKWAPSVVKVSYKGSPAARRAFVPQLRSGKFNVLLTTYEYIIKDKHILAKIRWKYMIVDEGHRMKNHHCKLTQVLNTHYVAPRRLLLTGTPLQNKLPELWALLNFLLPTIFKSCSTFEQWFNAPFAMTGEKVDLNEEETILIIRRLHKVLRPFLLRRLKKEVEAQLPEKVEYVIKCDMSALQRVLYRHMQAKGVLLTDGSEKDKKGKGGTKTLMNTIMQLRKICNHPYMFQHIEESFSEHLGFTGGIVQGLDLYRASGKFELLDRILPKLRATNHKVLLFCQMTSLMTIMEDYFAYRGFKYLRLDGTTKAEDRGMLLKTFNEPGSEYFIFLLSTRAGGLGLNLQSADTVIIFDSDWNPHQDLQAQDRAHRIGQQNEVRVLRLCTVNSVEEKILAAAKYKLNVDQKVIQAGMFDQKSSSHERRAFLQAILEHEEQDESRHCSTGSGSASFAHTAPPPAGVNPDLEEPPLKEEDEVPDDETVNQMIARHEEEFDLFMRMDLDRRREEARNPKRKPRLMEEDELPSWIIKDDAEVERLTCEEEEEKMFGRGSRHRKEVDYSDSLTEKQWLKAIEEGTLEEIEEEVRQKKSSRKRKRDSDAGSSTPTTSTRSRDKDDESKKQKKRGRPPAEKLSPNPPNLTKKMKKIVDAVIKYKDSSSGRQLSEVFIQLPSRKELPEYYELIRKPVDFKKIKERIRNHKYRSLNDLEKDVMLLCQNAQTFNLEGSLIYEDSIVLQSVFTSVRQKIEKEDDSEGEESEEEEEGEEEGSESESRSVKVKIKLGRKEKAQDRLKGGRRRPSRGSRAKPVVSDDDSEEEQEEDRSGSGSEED
SMARCA2, sequence (P51531 whole entry): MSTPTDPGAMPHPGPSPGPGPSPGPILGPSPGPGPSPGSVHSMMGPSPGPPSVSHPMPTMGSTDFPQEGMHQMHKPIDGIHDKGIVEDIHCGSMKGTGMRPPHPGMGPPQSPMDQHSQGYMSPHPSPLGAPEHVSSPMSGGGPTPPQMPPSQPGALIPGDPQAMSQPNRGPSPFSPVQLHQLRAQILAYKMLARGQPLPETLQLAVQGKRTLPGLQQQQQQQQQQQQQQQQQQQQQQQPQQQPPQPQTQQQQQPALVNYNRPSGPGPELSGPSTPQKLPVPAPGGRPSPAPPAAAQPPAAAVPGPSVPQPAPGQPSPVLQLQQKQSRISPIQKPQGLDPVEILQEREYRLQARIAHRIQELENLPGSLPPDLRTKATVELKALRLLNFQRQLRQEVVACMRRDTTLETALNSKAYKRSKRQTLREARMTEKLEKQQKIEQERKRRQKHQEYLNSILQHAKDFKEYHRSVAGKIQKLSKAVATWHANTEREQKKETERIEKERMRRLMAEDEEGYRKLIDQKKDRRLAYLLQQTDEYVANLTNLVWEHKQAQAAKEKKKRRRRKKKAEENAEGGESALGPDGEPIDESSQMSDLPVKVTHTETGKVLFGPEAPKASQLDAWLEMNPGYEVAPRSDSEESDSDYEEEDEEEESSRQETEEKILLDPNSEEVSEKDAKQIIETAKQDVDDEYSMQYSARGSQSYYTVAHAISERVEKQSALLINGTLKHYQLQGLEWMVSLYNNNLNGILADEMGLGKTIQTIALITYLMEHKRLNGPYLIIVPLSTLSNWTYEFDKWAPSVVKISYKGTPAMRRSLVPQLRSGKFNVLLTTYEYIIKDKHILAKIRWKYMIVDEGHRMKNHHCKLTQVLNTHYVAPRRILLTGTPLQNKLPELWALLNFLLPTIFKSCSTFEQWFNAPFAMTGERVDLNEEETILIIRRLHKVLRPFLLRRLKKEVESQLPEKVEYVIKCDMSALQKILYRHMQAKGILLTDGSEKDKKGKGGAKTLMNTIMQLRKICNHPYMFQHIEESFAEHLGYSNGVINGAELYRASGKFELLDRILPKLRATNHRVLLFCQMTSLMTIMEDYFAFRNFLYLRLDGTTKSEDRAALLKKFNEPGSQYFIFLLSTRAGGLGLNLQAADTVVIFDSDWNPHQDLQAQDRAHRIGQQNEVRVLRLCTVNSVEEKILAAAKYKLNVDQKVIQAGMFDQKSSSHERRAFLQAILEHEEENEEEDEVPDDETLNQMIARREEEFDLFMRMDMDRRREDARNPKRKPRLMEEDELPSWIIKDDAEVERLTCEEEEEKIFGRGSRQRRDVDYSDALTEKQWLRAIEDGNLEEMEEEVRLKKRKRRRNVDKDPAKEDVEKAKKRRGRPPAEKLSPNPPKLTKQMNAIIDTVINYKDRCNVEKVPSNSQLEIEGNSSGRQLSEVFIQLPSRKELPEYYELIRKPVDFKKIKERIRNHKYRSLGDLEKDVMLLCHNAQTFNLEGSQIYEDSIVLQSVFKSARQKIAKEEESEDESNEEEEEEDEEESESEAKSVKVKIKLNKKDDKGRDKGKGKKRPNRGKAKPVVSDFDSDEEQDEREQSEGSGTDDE

SMILES: Cc1ncsc1-c1ccc(C(CCC(C)CCN2CCC(c3ccc4c(c3)n(C3CCCC3)c3nc(=O)c5c(Br)cccc5n43)CC2)NC(=O)C2CC(O)CN2C(=O)C(NC(=O)C2(F)CC2)C(C)(C)C)cc1 (centres unmarked) [ACBI2]
- % protein remaining, SMARCA2 (SMARCA2; Donor 1, log10[concentration (mol/l)] -6): 7.774% and 7.336% and 6.483%
- % protein remaining, SMARCA2 (SMARCA2; Donor 1, log10[concentration (mol/l)] -6.47712): 27.8553% and 21.8081% and 18.9544%
- % protein remaining, SMARCA2 (SMARCA2; Donor 1, log10[concentration (mol/l)] -6.95424): 43.7755% and 37.877% and 37.8583%
- % protein remaining, SMARCA2 (SMARCA2; Donor 1, log10[concentration (mol/l)] -7.43136): 67.8936% and 57.3294% and 53.6432%
- % protein remaining, SMARCA2 (SMARCA2; Donor 1, log10[concentration (mol/l)] -7.90848): 91.2009% and 93.1862% and 66.2599%
- % protein remaining, SMARCA2 (SMARCA2; Donor 1, log10[concentration (mol/l)] -8.38561): 88.6362% and 87.296% and 66.0015%
- % protein remaining, SMARCA2 (SMARCA2; Donor 1, log10[concentration (mol/l)] -8.86273): 73.7554% and 107.064% and 91.2397%
- HillSlope (best-fit value) (SMARCA2; Donor 1 SMARCA2): -0.8748
- Bottom (best-fit value) (SMARCA2; Donor 1 SMARCA2): -2.012%
- Span (best-fit value) (SMARCA2; Donor 1 SMARCA2): 93.51%
- Top (best-fit value) (SMARCA2; Donor 1 SMARCA2): 91.5%
- DC50 (SMARCA2; Donor 1 SMARCA2): 91.1 nM
- LogEC50 (best-fit value) (SMARCA2; Donor 1 SMARCA2): -7.04
- % protein remaining, SMARCA2 (SMARCA2; Donor 2, log10[concentration (mol/l)] -6): 7.351% and 9.811% and 14.3342%
- % protein remaining, SMARCA2 (SMARCA2; Donor 2, log10[concentration (mol/l)] -6.47712): 29.8249% and 32.3978% and 22.5296%
- % protein remaining, SMARCA2 (SMARCA2; Donor 2, log10[concentration (mol/l)] -6.95424): 46.7755% and 52.5543% and 72.1634%
- % protein remaining, SMARCA2 (SMARCA2; Donor 2, log10[concentration (mol/l)] -7.43136): 100.769% and 75.1426% and 71.9733%
- % protein remaining, SMARCA2 (SMARCA2; Donor 2, log10[concentration (mol/l)] -7.90848): 102.968% and 75.392% and 80.5753%
- % protein remaining, SMARCA2 (SMARCA2; Donor 2, log10[concentration (mol/l)] -8.38561): 67.4421% and 97.2734% and 86.3024%
- % protein remaining, SMARCA2 (SMARCA2; Donor 2, log10[concentration (mol/l)] -8.86273): 85.0643% and 65.7852% and 85.6876%
- HillSlope (best-fit value) (SMARCA2; Donor 2 SMARCA2): -1.742
- Bottom (best-fit value) (SMARCA2; Donor 2 SMARCA2): 8.097%
- Span (best-fit value) (SMARCA2; Donor 2 SMARCA2): 75.81%
- Top (best-fit value) (SMARCA2; Donor 2 SMARCA2): 83.91%
- DC50 (SMARCA2; Donor 2 SMARCA2): 172 nM
- LogEC50 (best-fit value) (SMARCA2; Donor 2 SMARCA2): -6.765
- % protein remaining, SMARCA2 (SMARCA2; Donor 3, log10[concentration (mol/l)] -6): 11.0787% and 14.9408% and 20.3816%
- % protein remaining, SMARCA2 (SMARCA2; Donor 3, log10[concentration (mol/l)] -6.47712): 32.5224% and 22.883% and 24.5065%
- % protein remaining, SMARCA2 (SMARCA2; Donor 3, log10[concentration (mol/l)] -6.95424): 43.403% and 45.8346% and 34.6157%
- % protein remaining, SMARCA2 (SMARCA2; Donor 3, log10[concentration (mol/l)] -7.43136): 68.0983% and 70.9906% and 84.1093%
- % protein remaining, SMARCA2 (SMARCA2; Donor 3, log10[concentration (mol/l)] -7.90848): 97.8509% and 97.5546% and 65.5857%
- % protein remaining, SMARCA2 (SMARCA2; Donor 3, log10[concentration (mol/l)] -8.38561): 73.4464% and 119.725% and 73.7076%
- % protein remaining, SMARCA2 (SMARCA2; Donor 3, log10[concentration (mol/l)] -8.86273): 88.433% and 116.976% and 110.86%
- HillSlope (best-fit value) (SMARCA2; Donor 3 SMARCA2): -0.9991
- Bottom (best-fit value) (SMARCA2; Donor 3 SMARCA2): 9.358%
- Span (best-fit value) (SMARCA2; Donor 3 SMARCA2): 92.07%
- Top (best-fit value) (SMARCA2; Donor 3 SMARCA2): 101.4%
- DC50 (SMARCA2; Donor 3 SMARCA2): 70.3 nM
- LogEC50 (best-fit value) (SMARCA2; Donor 3 SMARCA2): -7.153
- SMARCA2 degradation in human whole blood (SMARCA2; three healthy donors, 18 h): significant degradation of SMARCA2
- % protein remaining, SMARCA4 (SMARCA4; log10[concentration (mol/l)] -6): 46.277% and 56.0869% and 48.4826%
- % protein remaining, SMARCA4 (SMARCA4; log10[concentration (mol/l)] -6.47712): 107.389% and 70.5686% and 73.1116%
- % protein remaining, SMARCA4 (SMARCA4; log10[concentration (mol/l)] -6.95424): 84.4427% and 113.429% and 101.258%
- % protein remaining, SMARCA4 (SMARCA4; log10[concentration (mol/l)] -7.43136): 119.708% and 145.145% and 104.637%
- % protein remaining, SMARCA4 (SMARCA4; log10[concentration (mol/l)] -7.90848): 127.921% and 114.745% and 82.4839%
- % protein remaining, SMARCA4 (SMARCA4; log10[concentration (mol/l)] -8.38561): 104.578% and 95.4334% and 80.9398%
- HillSlope (best-fit value) (SMARCA4; Donor 1 SMARCA4, four-parameter fit): -2.117
- Bottom (best-fit value) (SMARCA4; [1]): 40.33%
- Span (best-fit value) (SMARCA4; [1]): 66.56%
- Top (best-fit value) (SMARCA4; [1]): 106.9%
